Assay: xn = mol fraction of the nth substance listed
Conditions: 101 kPa, Liquid; for speed of sound: Sing-around technique in a fixed-path interferometer; for mass density: Vibrating tube method

CCCCCCCC[n+]1ccn(C)c1.[Cl-] [1-methyl-3-octylimidazolium chloride] + O
Conditions | mass density, 308 K [kg/m3] | mass density, 313 K [kg/m3] | speed of sound, 308 K [m/s] | speed of sound, 313 K [m/s]
x1 = 0.000276 | 994.15 | 992.324 | – | 1531.1
x1 = 0.000495 | 994.182 | 992.347 | – | 1532.6
x1 = 0.000781 | 994.262 | 992.417 | – | 1534.6
x1 = 0.00102 | 994.297 | 992.447 | – | 1536.2
x1 = 0.0013 | 994.364 | 992.496 | – | 1538.1
x1 = 0.001503 | 994.399 | 992.524 | – | 1539.5
x1 = 0.001892 | 994.479 | 992.591 | – | 1542
x1 = 0.002073 | 994.514 | 992.619 | – | 1543.2
x1 = 0.002376 | 994.575 | 992.664 | – | 1545
x1 = 0.00261 | 994.623 | 992.706 | – | 1546.6
x1 = 0.002774 | 994.653 | 992.728 | – | 1547.5
x1 = 0.003111 | 994.711 | 992.774 | 1542.3 | 1549.5
x1 = 0.003716 | 994.828 | 992.866 | 1545.9 | 1552.7
x1 = 0.003899 | 994.859 | 992.89 | 1546.9 | 1553.7
x1 = 0.004079 | 994.891 | 992.912 | 1548 | 1554.6
x1 = 0.004181 | 994.908 | 992.929 | 1548.6 | 1555.1
x1 = 0.004462 | 994.953 | 992.963 | 1550.1 | 1556.5
x1 = 0.004601 | 994.974 | 992.978 | 1550.8 | 1557.1
x1 = 0.004981 | 995.028 | 993.015 | 1552.6 | 1558.7
x1 = 0.005198 | 995.061 | 993.04 | 1553.5 | 1559.5
x1 = 0.005607 | 995.112 | 993.076 | 1555.3 | 1561
x1 = 0.005782 | 995.128 | 993.084 | 1555.9 | 1561.6
